The record followed here is EP0405506A1, “Tetrapeptide type-B CCK receptor ligands” (ABBOTT LABORATORIES, priority 1989, dated 1991).

In test [1] the target is T1, CCK-B receptors on small cell lung cancer cell lines (Homo sapiens, UniProt P32239).
T1 construct: endogenous in cells; host or cells: NCI-H345 and H209 small cell lung cancer cells
T1 sequence (P32239 1-447): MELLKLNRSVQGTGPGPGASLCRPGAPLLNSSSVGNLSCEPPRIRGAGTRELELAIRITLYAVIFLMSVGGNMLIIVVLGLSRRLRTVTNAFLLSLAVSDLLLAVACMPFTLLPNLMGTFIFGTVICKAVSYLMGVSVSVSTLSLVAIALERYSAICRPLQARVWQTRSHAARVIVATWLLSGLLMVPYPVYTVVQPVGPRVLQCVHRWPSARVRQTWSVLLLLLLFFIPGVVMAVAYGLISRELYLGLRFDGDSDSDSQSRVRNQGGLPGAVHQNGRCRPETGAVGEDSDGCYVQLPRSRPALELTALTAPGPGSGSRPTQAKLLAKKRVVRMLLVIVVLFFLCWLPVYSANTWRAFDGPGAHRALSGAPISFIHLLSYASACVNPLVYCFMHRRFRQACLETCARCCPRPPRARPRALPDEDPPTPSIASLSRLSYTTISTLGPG
Briefly: Measurement of [Ca++]i changes in NCI-H345 and H209 cell lines (indo-1 fluorescence). It counts as cell-based. Conditions: read-out: Intrinsic Activity Relative to CCK-8.
Procedure: Protocol for Measuring [Ca++]i Changes in NCI-H345 and H209 Cell Lines
Culture conditions were as described (D.G. Yoder, T.W. Moody, Peptides, 8, 103 (1987), except that the medium was modified to RPMI 1640 with 2.5% fetal bovine serum (heat inactivated), 5µg/l sodium selenite, 5 mg/l human transferrin, 5 mg/l insulin, penicillin (100 U/l) and streptomycin (100 µg/l). To measure intracellular Ca²⁺, cells were loaded with 1 µM of indo-1,AM, for 60 min at 37°C. The cells were centrifuged at 750 x g for 5 min and resuspended in 40 mL Buffer F (Dulbecco's phosphate buffered saline containing 0.1% glucose, pH 7.4). The cells were counted then twice washed by centrifugation. The final pellet was resuspended (approximately 1 x 10⁶ cells/mL) in Buffer F. The cells were thermally equilibrated in a thermostated cuvette (37°C) for 2 min prior to base-line fluorescence measurement. Fluorescence measurements were made with an SLM 8000C spectrofluorimeter equipped with magnetic microstirrer and polarizing filters. Measurements with indo-1-loaded cells were obtained at excitation wavelength of 350 nm and emission wavelength of 480 and 405 nM and the time interval for the measurements was 0.5 sec.

In the next test the test system is VTA neurons. Briefly: Potentiation of ethanol-induced excitation of VTA neurons in rat brain slices (extracellular recording). Conditions: ethanol 80 to 160 mM, agonist infused at least 10 minutes before ethanol. Type of test: cell-based, Sprague-Dawley rats. How it is done: Brain slices form Sprague-Dawley rats (100-200 gm) containing the ventral tegmental area were prepared as previously described (Brodie and Dunwiddie, Brain Research, 425, 106 (1987)). Animals used in this study were treated in strict accordance with the NIH Guide for the Care and use of Laboratory Animals. Coronal sections (400 um thick) were cut and the tissue was place directly in the recording chamber. Small platinum weights were placed on the slice to increase the stability of recordings. The slice was covered with medium and a superfusion system then maintained the flow of medium at 2 ml/min; the temperature in the recording chamber was kept at 35°C. […] The flow rate was continuously monitored with a flowmeter and adjustable valves were used to keep the rate constant. […]
Ethanol and the CCK agonist compound were added to the aCSF in the fluid delivery tubing by means of a calibrated infusion pump from stock solutions 100 to 1000 times the desired final concentrations. Final concentrations were calculated from aCSF flow rate, pump infusion rate and concentration of drug stock solution. […]
Frequency of firing was determined using a window discriminator and ratemeter, the output of which was fed to a chart recorder. […]

`CCC[C@H]1CCN(C(=O)[C@@H]2Cc3c[nH]c4cccc(c34)CC(=O)N2)[C@@H]1C(=O)N[C@@H](CC(=O)O)C(=O)N[C@@H](Cc1ccccc1)C(N)=O` [Example 48, Ctp-Tpp-Asp-Phe-NH₂]: the Emax in test [1] worked out at 103%. The “effect on excitatory effect of ethanol on VTA neurons (firing rate)” value in the test with VTA neurons is reported as “increases the excitatory effect of ethanol on VTA neurons”.
